Values after ≈ are worked out from the molar mass of the structure shown.
How the values were obtained:
Assay type in all cases: functional
Candida albicans [1] = assay: In vitro antifungal activity for Candida albicans 4711E
Candida albicans [2] = assay: In vitro antifungal activity for Candida albicans 2402E
Cryptococcus neoformans = assay: In vitro antifungal activity for Cryptococcus neoformans 2867E
Kluyveromyces marxianus = assay: In vitro antifungal activity for Candida pseudotropicalis 2371E
Candida tropicalis = assay: In vitro antifungal activity for Candida tropicalis 2808E
Candida albicans [3] = assay: In vitro antifungal activity for Candida albicans 2005E
Nakaseomyces glabratus = assay: In vitro antifungal activity for Candida glabrata 2375E

MIC (Candida albicans [1]) [µg/mL] | MIC (Candida albicans [2]) [µg/mL] | MIC (Cryptococcus neoformans) [µg/mL] | MIC (Kluyveromyces marxianus) [µg/mL] | MIC (Candida tropicalis) [µg/mL] | MIC (Candida albicans [3]) [µg/mL] | MIC (Nakaseomyces glabratus) [µg/mL] | Compound
0.03 (≈ 0.0632 µM) | 0.015 (≈ 0.0316 µM) | 0.5 (≈ 1.05 µM) | 0.03 (≈ 0.0632 µM) | 0.25 (≈ 0.527 µM) | 0.015 (≈ 0.0316 µM) | 16 (≈ 33.7 µM) | CC(C)C1=CC2CC3(C=O)[C@@H]4CC[C@@H](C)[C@H]4CC2(CO[C@H]2C[C@@H]4OCO[C@@H]4[C@@H](C)O2)C13C(=O)O (stereo partly specified)
0.25 (≈ 0.416 µM) | 0.03 (≈ 0.0499 µM) | 0.25 (≈ 0.416 µM) | 0.03 (≈ 0.0499 µM) | 0.06 (≈ 0.0999 µM) | 0.015 (≈ 0.025 µM) | > 125 | C/C=C/C=C(\C)C(=O)O[C@H]1[C@H](O)[C@H](OCC23C[C@@H]4[C@H](C)CC[C@H]4C4(C=O)CC2C=C(C(C)C)C34C(=O)O)O[C@H](C)[C@H]1OC (stereo partly specified)
2 (≈ 4.09 µM) | 4 (≈ 8.19 µM) | 16 (≈ 32.7 µM) | 1 (≈ 2.05 µM) | 2 (≈ 4.09 µM) | 1 (≈ 2.05 µM) | 8 (≈ 16.4 µM) | CC(C)C1=CC2CC3(C=O)[C@@H]4CC[C@@H](C)[C@H]4CC2(CO[C@H]2C[C@@H]4OC(=O)O[C@@H]4[C@@H](C)O2)C13C(=O)O (stereo partly specified)
< 0.001 | – | 31 (≈ 63.4 µM) | 0.004 (≈ 0.00819 µM) | 0.03 (≈ 0.0614 µM) | < 0.001 | 8 (≈ 16.4 µM) | CC1O[C@H]2[C@H](C[C@H](OCC34C[C@@H]5[C@H](C)CC[C@H]5C5(C=O)CC3C=C(C(C)C)C45C(=O)O)O[C@@H]2C)O1 (stereo partly specified)
0.004 (≈ 0.00796 µM) | 0.008 (≈ 0.0159 µM) | 8 (≈ 15.9 µM) | 0.004 (≈ 0.00796 µM) | 0.12 (≈ 0.239 µM) | < 0.001 | 31 (≈ 61.7 µM) | CC(C)C1=CC2CC3(C=O)[C@@H]4CC[C@@H](C)[C@H]4CC2(CO[C@H]2C[C@@H]4OC(C)(C)O[C@@H]4[C@@H](C)O2)C13C(=O)O (stereo partly specified)
4 (≈ 7.96 µM) | – | > 125 | 4 (≈ 7.96 µM) | 16 (≈ 31.8 µM) | 2 (≈ 3.98 µM) | > 125 | CC(C)C1=CC2CC3(C=O)[C@@H]4CC[C@@H](C)[C@H]4CC2(CO[C@@H]2C[C@@H]4OC(C)(C)O[C@@H]4[C@@H](C)O2)C13C(=O)O (stereo partly specified)
0.25 (≈ 0.484 µM) | 0.12 (≈ 0.232 µM) | 31 (≈ 60 µM) | 0.03 (≈ 0.0581 µM) | 1 (≈ 1.94 µM) | 0.015 (≈ 0.029 µM) | > 125 | CC(C)C1=CC2CC3(C=O)[C@@H]4CC[C@@H](C)[C@H]4CC2(CO[C@H]2C[C@@H]4OC(C)(C)CO[C@@H]4[C@@H](C)O2)C13C(=O)O (stereo partly specified)
2 (≈ 3.96 µM) | 8 (≈ 15.9 µM) | 8 (≈ 15.9 µM) | 1 (≈ 1.98 µM) | 125 (≈ 248 µM) | 2 (≈ 3.96 µM) | 16 (≈ 31.7 µM) | CC(C)C1=CC2CC3(C=O)[C@@H]4CC[C@@H](C)[C@H]4CC2(CO[C@H]2C[C@@H]4OC(=S)O[C@@H]4[C@@H](C)O2)C13C(=O)O (stereo partly specified)
8 (≈ 15.4 µM) | 8 (≈ 15.4 µM) | > 125 | 2 (≈ 3.86 µM) | 31 (≈ 59.8 µM) | 2 (≈ 3.86 µM) | > 125 | CC(C)C1=CC2CC3(C=O)[C@@H]4CC[C@@H](C)[C@H]4CC2(CO[C@@H]2O[C@H](C)[C@H]4OC(C)(C)OC4[C@H]2O)C13C(=O)O (single isomer, unassigned)
62 (≈ 119 µM) | 62 (≈ 119 µM) | 16 (≈ 30.7 µM) | 31 (≈ 59.5 µM) | > 125 | 31 (≈ 59.5 µM) | 125 (≈ 240 µM) | CC(C)C1=CC2CC3(C=O)[C@@H]4CC[C@@H](C)[C@H]4CC2(CO[C@@H]2O[C@H](C)[C@H]4OC(=S)OC4[C@@H]2O)C13C(=O)O (single isomer, unassigned)
0.12 (≈ 0.231 µM) | 0.5 (≈ 0.964 µM) | 125 (≈ 241 µM) | 0.06 (≈ 0.116 µM) | 1 (≈ 1.93 µM) | 0.12 (≈ 0.231 µM) | 31 (≈ 59.8 µM) | CC(C)C1=CC2CC3(C=O)[C@@H]4CC[C@@H](C)[C@H]4CC2(CO[C@@H]2O[C@H](C)[C@H]4OC(C)(C)OC4[C@@H]2O)C13C(=O)O (single isomer, unassigned)
0.5 (≈ 0.991 µM) | – | 16 (≈ 31.7 µM) | 0.5 (≈ 0.991 µM) | 1 (≈ 1.98 µM) | 0.03 (≈ 0.0595 µM) | 62 (≈ 123 µM) | CC1OC2[C@H](O)[C@H](OCC34C[C@@H]5[C@H](C)CC[C@H]5C5(C=O)CC3C=C(C(C)C)C45C(=O)O)O[C@H](C)[C@H]2O1 (single isomer, unassigned)
